Laboratory results published in patent US20150065416A1, “NOVEL DRUG COMBINATION” (FAB PHARMA SAS, priority 2013, published 2015).

What was measured:
Assay type in all cases: cell-based, Acinetobacter baumannii
A. baumannii isolates [1] = assay: Individual antimicrobial susceptibility testing (MIC, broth microdilution, CLSI)
Method: In the antimicrobial susceptibility testing 77 isolates of A. baumannii (from 2010) in the following sub-groups were tested: • 22 isolates generally susceptible to antimicrobial agents (“Sus”) • 20 carbapenem-resistant isolates (e.g. “MPM-R”) • 20 aminoglycoside-resistant isolates (e.g. “AMK-R”) • 15 colistin-resistant isolates. (e.g. “COL-R”)
Minimum inhibitory concentration (MIC) endpoints were determined by broth microdilution according to CLSI guidelines (CLSI, M7-A8 & M100-S22, 2012). Panels were prepared at IHMA using cation-adjusted Mueller-Hinton broth. Colonies were taken directly from a second-pass culture plate and prepared to a suspension equivalent of the 0.5 McFarland standard using normal saline.
Testing was carried out as described in the General Procedures to determine minimum inhibitory concentration (MIC) end points for compound (I), amikacin, colistin, gentamicin, meropenem and tobramycin, for 77 A. baumannii isolates. Under the “MIC (μg/ml)” heading, the first column (Range) indicates the MIC end points for the particular number (N) of isolates tested, the second column (50%) provides an estimate of the concentration that inhibits 50% (MIC50) of bacterial isolates tested, and the third column (90%) provides an estimate of the concentration that inhibits 90% of the bacterial isolates tested.

A. baumannii isolates [2] = assay: Checkerboard testing (compound (I)/antibacterial agent interaction, FIC index)
Method: Checkerboard interaction studies were performed using 5 isolates from each of the sub-groups and time kill studies were performed using 3 isolates from each sub-group.
Checkerboards (20 isolates, 5 per sub-group) were prepared so as to contain multiple concentrations of compound (I) with different additional antibacterial agents (amikacin, gentamicin, colistin, meropenem and tobramycin) as follows:
Serial two-fold dilutions of the antimicrobial agents alone or in combination in wells of 96 well microtiter plates were inoculated with the appropriate inoculum so that each well contained approximately 4-5×10^4 CFU/ml. Plates were incubated at 35° C. for 16-20 hours. Combination concentrations were tested between 0.25×MIC and 2×MIC. Growth and sterility controls were also included in each plate.
Synergy, indifference and antagonism were calculated based upon the use of the fractional inhibitory concentration (FIC) indices as described by Pillai, Moellering & Eliopoulos (2005) whereby:
Synergism=FIC index of ≦0.5 Indifference=FIC index >1 but ≦4 Additivity >0.5 to 1 Antagonism=FIC index of >4
Checkerboard studies were carried out as described in General Procedures using twenty different A. baumannii isolates with 5 per sub-group of: susceptible, amikacin-resistant, colistin-resistant and meropenem-resistant.

A. baumannii isolates [3] = assay: Time kill study (Example 4); details: for Time to kill 99.9%: alone
Method: A total of 12 isolates were tested (three per sub-group either susceptible, meropenem-resistant, amikacin-resistant or colistin-resistant). Two combinations were tested per isolate. Time-kill kinetics were performed by testing compound (I) and an additional antibacterial agent (amikacin, colistin and meropenem) individually at 1× and 4× the corresponding MIC of each antibacterial agent. […] Samples were taken at 0, 2, 4, 8 and 24 hours in order to determine colony forming units (CFU/mL).
Time-kill studies were carried out as described in General Procedures using combinations of compound (I) with amikacin, meropenem and colistin, respectively.

[4] = system: A. baumannii CIP 5377, CIP 7034, AYE, SAN, RCH; assay: Antimicrobial susceptibility testing (MIC, broth microdilution, EUCAST; Example 5)
Excerpt: A. baumannii CIP 5377 (ATCC® 17978): low cephalosporinase producing strain, susceptible to meropenem and amikacin, isolated in an infected patient
A. baumannii CIP 7034: low cephalosporinase producing strain, susceptible to meropenem and amikacin A. baumannii AYE ATCC® BAA1710™: extended spectrum beta-lactamase producing strain susceptible to meropenem and resistant to amikacin
A. baumannii SAN-94040 (SAN): cephalosporinase-overproducing strain, susceptible to meropenem and intermediate to amikacin and resistant to fluoroquinolones, isolated from blood cultures of an intensive care patient with nosocomial pneumonia from North Africa (Algeria).
A. baumannii RCH-69: cephalosporinase producing strain; low susceptibility to imipenem and resistant to amikacin.

[5] = Amikacin-resistant isolates, N=20
[6] = Colistin-resistant isolates, N=15
[7] = Meropenem-resistant isolates, N=20
[8] = A. baumannii 441142, colistin-resistant
[9] = A. baumannii 441160, colistin-resistant
[10] = A. baumannii 463996, colistin-resistant
[11] = A. baumannii 466936, colistin-resistant
[12] = A. baumannii 517303, colistin-resistant
[13] = A. baumannii 618649, meropenem-resistant
[14] = A. baumannii 625917, meropenem-resistant
[15] = A. baumannii 628760, susceptible
[16] = A. baumannii 637723, amikacin-resistant
[17] = A. baumannii 638115, amikacin-resistant
[18] = A. baumannii 650216, meropenem-resistant
[19] = A. baumannii 655932, amikacin-resistant
[20] = A. baumannii 661954, amikacin-resistant
[21] = A. baumannii 667848, meropenem-resistant
[22] = A. baumannii 668116, susceptible
[23] = A. baumannii 668239, amikacin-resistant
[24] = A. baumannii 670348, susceptible
[25] = A. baumannii 671050, meropenem-resistant
[26] = A. baumannii 672190, susceptible
[27] = A. baumannii 674340, susceptible

colistin
mode MIC (A. baumannii isolates [1]; 77 isolates, FIG. 1 and 2): lowest mode MIC
MIC 50% (A. baumannii isolates [1]; All isolates, N=77): 0.5 µg/mL
MIC 90% (A. baumannii isolates [1]; All isolates, N=77): 8 µg/mL
MIC 50% (A. baumannii isolates [1]; [5]): 0.5 µg/mL
MIC 90% (A. baumannii isolates [1]; [5]): 1 µg/mL
MIC Range (A. baumannii isolates [1]; [5]): 0.25 to 2 µg/mL
MIC 50% (A. baumannii isolates [1]; [6]): 8 µg/mL
MIC 90% (A. baumannii isolates [1]; [6]): >32 µg/mL
MIC 50% (A. baumannii isolates [1]; [7]): 0.5 µg/mL
MIC 90% (A. baumannii isolates [1]; [7]): 1 µg/mL
MIC Range (A. baumannii isolates [1]; [7]): 0.25 to 1 µg/mL
MIC 50% (A. baumannii isolates [1]; Susceptible isolates, N=22): 0.5 µg/mL
MIC 90% (A. baumannii isolates [1]; Susceptible isolates, N=22): 0.5 µg/mL
MIC Range (A. baumannii isolates [1]; Susceptible isolates, N=22): 0.06 to 1 µg/mL
MIC (A. baumannii isolates [2]; [8]): 8 µg/mL
MIC (A. baumannii isolates [2]; [9]): 4 µg/mL
MIC (A. baumannii isolates [2]; [10]): 4 µg/mL
MIC (A. baumannii isolates [2]; [11]): 8 µg/mL
MIC (A. baumannii isolates [2]; [12]): >1024 µg/mL
MIC (A. baumannii isolates [2]; [13]): 0.5 µg/mL
MIC (A. baumannii isolates [2]; [14]): 0.5 µg/mL
MIC (A. baumannii isolates [2]; [15]): 0.5 µg/mL
MIC (A. baumannii isolates [2]; [16]): 0.5 µg/mL
MIC (A. baumannii isolates [2]; [17]): 0.5 µg/mL
MIC (A. baumannii isolates [2]; [18]): 0.25 µg/mL
MIC (A. baumannii isolates [2]; [19]): 0.5 µg/mL
MIC (A. baumannii isolates [2]; [20]): 1 µg/mL
MIC (A. baumannii isolates [2]; [21]): 0.5 µg/mL
MIC (A. baumannii isolates [2]; [22]): 1 µg/mL
MIC (A. baumannii isolates [2]; [23]): 0.5 µg/mL
MIC (A. baumannii isolates [2]; [24]): 0.5 µg/mL
MIC (A. baumannii isolates [2]; [25]): 0.5 µg/mL
MIC (A. baumannii isolates [2]; [26]): 0.5 µg/mL
MIC (A. baumannii isolates [2]; [27]): 0.5 µg/mL
Time to kill 99.9% (A. baumannii isolates [3]; AMK-R-1, 1xMIC): 1.4 h
Time to kill 99.9% (A. baumannii isolates [3]; AMK-R-1, 4xMIC): 1.3 h
Time to kill 99.9% (A. baumannii isolates [3]; AMK-R-2, 1xMIC): 2.3 h
Time to kill 99.9% (A. baumannii isolates [3]; AMK-R-2, 4xMIC): 1.8 h
Time to kill 99.9% (A. baumannii isolates [3]; AMK-R-3, 1xMIC): >24 h^
Time to kill 99.9% (A. baumannii isolates [3]; AMK-R-3, 4xMIC): 2.9 h
Time to kill 99.9% (A. baumannii isolates [3]; COL-R-1, 1xMIC): 2.8 h
Time to kill 99.9% (A. baumannii isolates [3]; COL-R-1, 4xMIC): 2.3 h
Time to kill 99.9% (A. baumannii isolates [3]; COL-R-2, 1xMIC): >24 h^
Time to kill 99.9% (A. baumannii isolates [3]; COL-R-2, 4xMIC): >24 h
Time to kill 99.9% (A. baumannii isolates [3]; COL-R-3, 1xMIC): 2.7 h
Time to kill 99.9% (A. baumannii isolates [3]; COL-R-3, 4xMIC): 2.1 h
Time to kill 99.9% (A. baumannii isolates [3]; MPM-R-1 (second line, Table 8 r14), 1xMIC): 1.3 h
Time to kill 99.9% (A. baumannii isolates [3]; MPM-R-1 (second line, Table 8 r14), 4xMIC): 1.6 h
Time to kill 99.9% (A. baumannii isolates [3]; MPM-R-1, 1xMIC): 5.0 h
Time to kill 99.9% (A. baumannii isolates [3]; MPM-R-1, 4xMIC): 8.1 h
Time to kill 99.9% (A. baumannii isolates [3]; MPM-R-3, 1xMIC): 2 h
Time to kill 99.9% (A. baumannii isolates [3]; MPM-R-3, 4xMIC): 5.1 h
Time to kill 99.9% (A. baumannii isolates [3]; Sus-1, 1xMIC): >24 h^
Time to kill 99.9% (A. baumannii isolates [3]; Sus-1, 4xMIC): >24 h
Time to kill 99.9% (A. baumannii isolates [3]; Sus-2, 4xMIC): 6.3 h
Time to kill 99.9% (A. baumannii isolates [3]; Sus-3, 1xMIC): 1.6 h
Time to kill 99.9% (A. baumannii isolates [3]; Sus-3, 4xMIC): 3.6 h
effect in time-kill studies when tested alone (A. baumannii isolates [3]; alone at 1× or 4×MIC): generally bactericidal
MIC (A. baumannii isolates [3]; isolate AMK-R-1): 0.5 µg/mL
MIC (A. baumannii isolates [3]; isolate AMK-R-2): 0.5 µg/mL
MIC (A. baumannii isolates [3]; isolate AMK-R-3): 0.25 µg/mL
MIC (A. baumannii isolates [3]; isolate COL-R-1): 8 µg/mL
MIC (A. baumannii isolates [3]; isolate COL-R-2): 4 µg/mL
MIC (A. baumannii isolates [3]; isolate COL-R-3): 16 µg/mL
MIC (A. baumannii isolates [3]; isolate MPM-R-1): 0.25 µg/mL
MIC (A. baumannii isolates [3]; isolate MPM-R-3): 1 µg/mL
MIC (A. baumannii isolates [3]; isolate Sus-1): 1 µg/mL
MIC (A. baumannii isolates [3]; isolate Sus-2): 0.5 µg/mL
MIC (A. baumannii isolates [3]; isolate Sus-3): 0.25 µg/mL
MIC (A. baumannii isolates [3]; isolate printed MPM-R-1 (second such line of Table 8, r14)): 1 µg/mL
MIC ([4]; A. baumannii AYE): 1 µg/mL
MIC ([4]; A. baumannii CIP 5377): 0.5 µg/mL
MIC ([4]; A. baumannii CIP 7034): 0.5 µg/mL
MIC ([4]; A. baumannii RCH): 0.5 µg/mL
MIC ([4]; A. baumannii SAN): 1 µg/mL

gentamicin
MIC 50% (A. baumannii isolates [1]; All isolates, N=77): 32 µg/mL
MIC 90% (A. baumannii isolates [1]; All isolates, N=77): >32 µg/mL
MIC 50% (A. baumannii isolates [1]; [5]): >32 µg/mL
MIC 90% (A. baumannii isolates [1]; [5]): >32 µg/mL
MIC 50% (A. baumannii isolates [1]; [6]): 32 µg/mL
MIC 90% (A. baumannii isolates [1]; [6]): >32 µg/mL
MIC 50% (A. baumannii isolates [1]; [7]): >32 µg/mL
MIC 90% (A. baumannii isolates [1]; [7]): >32 µg/mL
MIC 50% (A. baumannii isolates [1]; Susceptible isolates, N=22): 1 µg/mL
MIC 90% (A. baumannii isolates [1]; Susceptible isolates, N=22): 2 µg/mL
MIC Range (A. baumannii isolates [1]; Susceptible isolates, N=22): 0.06 to 2 µg/mL
MIC (A. baumannii isolates [2]; [8]): >1024 µg/mL
MIC (A. baumannii isolates [2]; [9]): >1024 µg/mL
MIC (A. baumannii isolates [2]; [10]): 2 µg/mL
MIC (A. baumannii isolates [2]; [11]): 4 µg/mL
MIC (A. baumannii isolates [2]; [12]): 512 µg/mL
MIC (A. baumannii isolates [2]; [13]): 0.5 µg/mL
MIC (A. baumannii isolates [2]; [14]): 1 µg/mL
MIC (A. baumannii isolates [2]; [15]): 1 µg/mL
MIC (A. baumannii isolates [2]; [16]): 128 µg/mL
MIC (A. baumannii isolates [2]; [17]): 4 µg/mL
MIC (A. baumannii isolates [2]; [18]): 64 µg/mL
MIC (A. baumannii isolates [2]; [19]): 128 µg/mL
MIC (A. baumannii isolates [2]; [20]): 16 µg/mL
MIC (A. baumannii isolates [2]; [21]): 256 µg/mL
MIC (A. baumannii isolates [2]; [22]): 0.5 µg/mL
MIC (A. baumannii isolates [2]; [23]): 1024 µg/mL
MIC (A. baumannii isolates [2]; [24]): 1 µg/mL
MIC (A. baumannii isolates [2]; [25]): 8 µg/mL
MIC (A. baumannii isolates [2]; [26]): 1 µg/mL
MIC (A. baumannii isolates [2]; [27]): 1 µg/mL
